The subject of this experiment is Escherichia coli. Description: suspension quantitative bactericidal test (2.1.1.7.4, Disinfection Technical Specifications 2002 edition), 30 min. In kind it is cell-based. To be noted: for antibacterial performance (in words): Table 3, 0.0015625% and 0.00078125% aqueous solutions. As for the experimental part: Referring to 2.1.1.7.4 suspension quantitative bactericidal test (2002 edition of Disinfection Technical Specifications), neutralizer was prepared: 2.1% lecithin+2.0% glucose+0.5% sodium thiosulfate+1.5% tween-80+0.5% peptone+1.2% sodium sulfite aqueous solution. C6-S—Cl (Example 1), C8-S—Cl (Example 3) and C10-S—Cl (Example 5) were diluted into 0.0015625% and 0.00078125% aqueous solutions, and the bactericidal experiment was carried out for 30 min to Escherichia coli.
Referring to 2.1.1.7.4 suspension quantitative bactericidal test (2002 edition of Disinfection Technical Specifications), neutralizer was prepared: 2.1% lecithin+2.0% glucose+0.5% sodium thiosulfate+1.5% tween-80+0.5% peptone+1.2% sodium sulfite aqueous solution. C8-S—Cl (Example 3), C8-S—Br (Example 4) and C8-S—NO3 (Example 7) were diluted into 0.0015625% and 0.00078125% aqueous solutions, and the bactericidal experiment was carried out for 30 min to Escherichia coli.
Referring to 2.1.1.7.4 suspension quantitative bactericidal test (2002 edition of Disinfection Technical Specifications), neutralizer was prepared: 2.1% lecithin+2.0% glucose+0.5% sodium thiosulfate+1.5% tween-80+0.5% peptone+1.2% sodium sulfite aqueous solution. C8-S—Cl (Example 3), C8-S—NO3—Ag^+ (Example 3), C8-S—CI—Cu^2+ (ratio 1), C8-S—CI—Mn^2+ (ratio 2), C8-S—CI—Fe^3+ (ratio 3), AgNO3, CuCl2, MnCl2, and FeCl3 were dissolved to 0.0015625% and 0.00078125% aqueous solution.
Referring to 2.1.1.7.4 suspension quantitative bactericidal test (2002 edition of Disinfection Technical Specifications), neutralizer was prepared: 2.1% lecithin+2.0% glucose+0.5% sodium thiosulfate+1.5% tween-80+0.5% peptone+1.2% sodium sulfite aqueous solution. C8-S—Cl (Example 3), C8-S—NO3 (Example 7) and C8-S—NO3—Ag^+ (Example 3) were configured into 0.0015625%, 0.00078125% and 0.000390625% aqueous solutions.
Referring to 2.1.1.7.4 suspension quantitative bactericidal test (2002 edition of Disinfection Technical Specifications), neutralizer was prepared: 2.1% lecithin+2.0% glucose+0.5% sodium thiosulfate+1.5% tween-80+0.5% peptone+1.2% sodium sulfite aqueous solution. The bactericidal experiment was carried out on E. coli for 30 min by preparing the silver-ion complex Gemini quaternary ammonium salt (Example 3), C10 chlorinated sulfur-free Gemini quaternary ammonium salt (Comparative example 4) and uncomplex silver-ion Gemini quaternary ammonium salt (Comparative example 4) into 0.0015625%, 0.00078125% and 0.000390625% aqueous solutions.

The mark [1] stands for this setting: Table 1, 0.00078125% aqueous solution, Escherichia coli.
Where [2] appears, read: Table 1, 0.0015625% aqueous solution, Escherichia coli.
Where [3] appears, read: Table 3, 0.00078125% aqueous solution, Escherichia coli.
Setting [4] is: Table 3, 0.0015625% aqueous solution, Escherichia coli.
The mark [5] stands for this setting: Table 2, 0.00078125% aqueous solution, Escherichia coli.
The mark [6] stands for this setting: Table 2, 0.0015625% aqueous solution, Escherichia coli.
Setting [7] is: Table 5, 0.000390625% aqueous solution, E. coli.
Where [8] appears, read: Table 5, 0.00078125% aqueous solution, E. coli.
[9] abbreviates: Table 5, 0.0015625% aqueous solution, E. coli.
Setting [10] is: Table 4, 0.000390625% aqueous solution, Escherichia coli.
Where [11] appears, read: Table 4, 0.00078125% aqueous solution, Escherichia coli.
Setting [12] is: Table 4, 0.0015625% aqueous solution, Escherichia coli.

Structures are written as SMILES.

Take `CCCCCCCCCCSCCC(=O)OCC[N+](C)(C)CCC[N+](C)(C)CCOC(=O)CCSCCCCCCCCCC` [Example C10-S-Cl]: under setting [1], the “Treated (cfu/mL)” value was 4.6 × 10^4 cfu/mL and the sterilizing rate is 99.841%. For the same compound, under setting [2], the “Treated (cfu/mL)” value is 5.8 × 10^2 cfu/mL and the sterilizing rate is over 99.99%.
On to `[Cl][Cu][Cl]` [CuCl2, reference compound], for which the “Treated (cfu/mL)” value is on record as 4.9 × 10^8 cfu/mL under setting [3] and 3.2 × 10^7 cfu/mL under setting [4]. The sterilizing rate result is reported as “No bactericidal effect” under setting [3] and “No bactericidal effect” under setting [4]. Also, the “antibacterial performance (in words)” value (Escherichia coli) was “did not show any antibacterial performance”.
Take `O=[N+]([O-])[O-].[Ag+]` [AgNO3, reference compound]: under setting [3], the “Treated (cfu/mL)” value is 1.3 × 10^8 cfu/mL and the sterilizing rate entry is reported as “No bactericidal effect”. Further, where the note is “Escherichia coli”, the “antibacterial performance (in words)” value is “did not show any antibacterial performance”. Under setting [4], the “Treated (cfu/mL)” value is 2.2 × 10^7 cfu/mL and the sterilizing rate result is reported as “No bactericidal effect”.
Consider `CCCCCCCCSCCC(=O)OCC[N+](C)(C)CCC[N+](C)(C)CCOC(=O)CCSCCCCCCCC` [Example C8-S-Cl], for which the “Treated (cfu/mL)” value reads like this: under setting [1], 1.9 × 10^2 cfu/mL; under setting [2], 90 cfu/mL; under setting [5], 1.7 × 10^3 cfu/mL; under setting [6], 79 cfu/mL; under setting [3], 1.8 × 10^3 cfu/mL; under setting [4], 86 cfu/mL. Moreover, the “Treated (cfu/mL)” value under setting [7] is given as 2.6 × 10^5 cfu/mL, the “Treated (cfu/mL)” value under setting [8] is reported as 1.8 × 10^3 cfu/mL and the “Treated (cfu/mL)” value under setting [9] is 82 cfu/mL. Besides, the sterilizing rate under setting [1] is reported as over 99.99%; the sterilizing rate under setting [2] is reported as over 99.999%; the sterilizing rate under setting [5] is over 99.99%; the sterilizing rate under setting [6] was over 99.999%; the sterilizing rate under setting [3] is given as over 99.99%; the sterilizing rate under setting [4] was over 99.999%. The sterilizing rate under setting [7] stood at 99.985%, the sterilizing rate under setting [8] is given as over 99.99% and the sterilizing rate under setting [9] is given as over 99.999%. In addition, the bactericidal rate result (Table 1, 0.0015625% and 0.00078125% aqueous solutions, Escherichia coli) is listed as “above 99.99%”.
For `CCCCCCCCSCCC(=O)OCC[N+](C)(C)CCC[N+](C)(C)CCOC(=O)CCSCCCCCCCC` [Example C8-S-NO3], the “Treated (cfu/mL)” value reads like this: under setting [5], 1.4 × 10^2 cfu/mL; under setting [6], 13 cfu/mL; under setting [10], 4.5 × 10^4 cfu/mL; under setting [11], 2.5 × 10^2 cfu/mL; under setting [12], 13 cfu/mL. For the same compound, the sterilizing rate under setting [5] is over 99.999%; the sterilizing rate under setting [6] was over 99.999%; the sterilizing rate under setting [10] is over 99.99%; the sterilizing rate under setting [11] is over 99.99%; the sterilizing rate under setting [12] is listed as over 99.999%. For the setting “Table 2, 0.0015625% and 0.00078125% aqueous solutions, Escherichia coli”, the bactericidal rate result is “above 99.999%”.
As for `CCCCCCCCCC(=O)OCC[N+](C)(C)CCC[N+](C)(C)CCOC(=O)CCCCCCCCC` [Example C10-Cl, reference compound], the “Treated (cfu/mL)” value reads like this: under setting [7], 4.3 × 10^5 cfu/mL; under setting [8], 3.5 × 10^3 cfu/mL; under setting [9], 1.2 × 10^2 cfu/mL. Also, the sterilizing rate is, setting by setting: under setting [7], 99.978%; under setting [8], over 99.99%; under setting [9], over 99.999%.
In the case of `CCCCCCCCSCCC(=O)OCC[N+](C)(C)CCC[N+](C)(C)CCOC(=O)CCSCCCCCCCC` [Example C8-S-Br], the “Treated (cfu/mL)” value under setting [5] is 1.1 × 10^3 cfu/mL and the “Treated (cfu/mL)” value under setting [6] is given as 75 cfu/mL. For the same compound, the sterilizing rate runs as follows: under setting [5], over 99.99%; under setting [6], over 99.999%.
Turning to `CCCCCCSCCC(=O)OCC[N+](C)(C)CCC[N+](C)(C)CCOC(=O)CCSCCCCCC` [Example C6-S-Cl], the “Treated (cfu/mL)” value by setting is: under setting [1], 4.0 × 10^5 cfu/mL; under setting [2], 3.2 × 10^3 cfu/mL. Also, the sterilizing rate runs as follows: under setting [1], 98.621%; under setting [2], 99.989%.
For `[Cl][Mn][Cl]` [MnCl2, reference compound], the “Treated (cfu/mL)” value under setting [3] is 8.9 × 10^7 cfu/mL and the “Treated (cfu/mL)” value under setting [4] is 2.3 × 10^7 cfu/mL. The sterilizing rate result reads like this: under setting [3], “No bactericidal effect”; under setting [4], “No bactericidal effect”. Further, where the note is “Escherichia coli”, the “antibacterial performance (in words)” value is on record as “did not show any antibacterial performance”.
`[Cl][Fe]([Cl])[Cl]` [FeCl3, reference compound]: under setting [3], the “Treated (cfu/mL)” value is reported as 6.2 × 10^8 cfu/mL and the sterilizing rate result is “No bactericidal effect”. Moreover, the “antibacterial performance (in words)” value (Escherichia coli) is listed as “did not show any antibacterial performance”. Further, under setting [4], the “Treated (cfu/mL)” value is reported as 4.3 × 10^7 cfu/mL and the sterilizing rate entry is reported as “No bactericidal effect”.

These data come from patent US20260209253A1, “SILVER ION COMPLEX GEMINI QUATERNARY AMMONIUM SALT: PREPARATION METHOD AND APPLICATIONS” (ANHUI KIWI BIOTECH CO., LTD, priority 2023, published 2026).
